This is an account of results in patent publication US6995185B2, “Δ1-pyrrolines used as pesticides” (Bayer Cropscience AG, priority 2000, dated 2006).

Molecules are shown by their SMILES.

The first series is described as follows: log P determination by HPLC on reversed-phase column (C 18), EEC directive 79/831 Annex V.A8. Conditions: pH 2.3 (marked a), 0.1% aqueous phosphoric acid/acetonitrile, 43° C. It counts as physicochemical. Here is the method: The log P values given in the tables and Preparation Examples above are determined in accordance with EEC directive 79/831 Annex V.A8 by HPLC (High Performance Liquid Chromatography) using a reversed-phase column (C 18). Temperature: 43° C. In the acidic range, the determination is carried out at pH 2.3 using the mobile phases 0.1% aqueous phosphoric acid and acetonitrile; linear gradient from 10% acetonitrile to 90% acetonitrile (marked^a) in the table). In the neutral range, the determination is carried out at pH 7.5 using the mobile phases 0.01-molar aqueous phosphate buffer solution and acetonitrile; linear gradient from 10% acetonitrile to 90% acetonitrile (marked^b) in the table). Calibration is carried out using unbranched alkan-2-ones (having 3 to 16 carbon atoms) with known log P values (determination of the log P values by the retention times using linear interpolation between two successive alkanones).
For `CC1CCC(OC(=O)[C@H]2CC(c3c(F)cccc3F)=NC2c2ccc(-c3ccc(OC(F)(F)F)cc3)cc2)CC1` (stereo partly drawn) [Example 49], the “log P” value is 6.28^a).

Staying with this series, now noted: reversed-phase HPLC column (C 18), pH 2.3, pH 2.3 (marked a), 0.1% aqueous phosphoric acid/acetonitrile, 43° C.
Compound `COC(=O)[C@H]1CC(c2ccccc2Cl)=N[C@H]1c1ccc(-c2ccc(OC(F)(F)F)cc2)cc1` (racemic) [Example 5, methyl ((2S, 3R), (2R, 3S))-5-(2-chlorophenyl)-2-[4′-(trifluoromethoxy)-1,1′-biphenyl-4-yl]-3,4-dihydro-2H-pyrrole-3-carboxylate] had a chromatographic logP of 5.05.
`CCOC(=O)[C@H]1CC(c2c(F)cccc2F)=NC1c1ccc(-c2ccc(OC(F)(F)F)cc2)cc1` (stereo partly drawn) [Example 10] showed a chromatographic logP of 4.73.
For `O=C(O)[C@H]1CC(c2c(F)cccc2F)=NC1c1ccc(-c2ccc(OC(F)(F)F)cc2)cc1` (stereo partly drawn) [Example 11], the chromatographic logP stood at 3.35.
For the compound `CC(C)OC(=O)[C@H]1CC(c2c(F)cccc2F)=NC1c1ccc(-c2ccc(OC(F)(F)F)cc2)cc1` (stereo partly drawn) [Example 12], the chromatographic logP stood at 5.05.
With `CCCCOC(=O)[C@H]1CC(c2c(F)cccc2F)=NC1c1ccc(-c2ccc(OC(F)(F)F)cc2)cc1` (stereo partly drawn) [Example 14], the chromatographic logP was determined as 5.41.
For the compound `CCCCCCOC(=O)[C@H]1CC(c2c(F)cccc2F)=NC1c1ccc(-c2ccc(OC(F)(F)F)cc2)cc1` (stereo partly drawn) [Example 15], the chromatographic logP is 6.11.
The compound `CCC(C)OC(=O)[C@H]1CC(c2c(F)cccc2F)=NC1c1ccc(-c2ccc(OC(F)(F)F)cc2)cc1` (stereo partly drawn) [Example 16] showed a chromatographic logP of 5.4.
Still for that read-out and setting: to `CC(C)COC(=O)[C@H]1CC(c2c(F)cccc2F)=NC1c1ccc(-c2ccc(OC(F)(F)F)cc2)cc1` (stereo partly drawn) [Example 17] belongs 5.38.
`O=C(OC1CCCC1)[C@H]1CC(c2c(F)cccc2F)=NC1c1ccc(-c2ccc(OC(F)(F)F)cc2)cc1` (stereo partly drawn) [Example 18] returned a chromatographic logP of 5.47.
`O=C(OC1CCCCC1)[C@H]1CC(c2c(F)cccc2F)=NC1c1ccc(-c2ccc(OC(F)(F)F)cc2)cc1` (stereo partly drawn) [Example 19] had a chromatographic logP of 5.85.
Same read-out and setting: next, `CCCCCOC(=O)[C@H]1CC(c2c(F)cccc2F)=NC1c1ccc(-c2ccc(OC(F)(F)F)cc2)cc1` (stereo partly drawn) [Example 20]: 5.84; `CC(C)(C)COC(=O)[C@H]1CC(c2c(F)cccc2F)=NC1c1ccc(-c2ccc(OC(F)(F)F)cc2)cc1` (stereo partly drawn) [Example 21]: 5.78.
Same read-out and setting: to `CC(C)C(C)OC(=O)[C@H]1CC(c2c(F)cccc2F)=NC1c1ccc(-c2ccc(OC(F)(F)F)cc2)cc1` (stereo partly drawn) [Example 22] belongs 5.71; to `CCC(CC)OC(=O)[C@H]1CC(c2c(F)cccc2F)=NC1c1ccc(-c2ccc(OC(F)(F)F)cc2)cc1` (stereo partly drawn) [Example 23], 5.78; to `COCCOC(=O)[C@H]1CC(c2c(F)cccc2F)=NC1c1ccc(-c2ccc(OC(F)(F)F)cc2)cc1` (stereo partly drawn) [Example 24], 4.37.
The compound `N#CCCOC(=O)[C@H]1CC(c2c(F)cccc2F)=NC1c1ccc(-c2ccc(OC(F)(F)F)cc2)cc1` (stereo partly drawn) [Example 25] registered a chromatographic logP of 4.08.
As to `C=CCCCOC(=O)[C@H]1CC(c2c(F)cccc2F)=NC1c1ccc(-c2ccc(OC(F)(F)F)cc2)cc1` (stereo partly drawn) [Example 26], the chromatographic logP was 5.48.
On the same count and under the same terms, next, `C=C(C)CCOC(=O)[C@H]1CC(c2c(F)cccc2F)=NC1c1ccc(-c2ccc(OC(F)(F)F)cc2)cc1` (stereo partly drawn) [Example 27]: 5.48; `O=C(OCc1ccoc1)[C@H]1CC(c2c(F)cccc2F)=NC1c1ccc(-c2ccc(OC(F)(F)F)cc2)cc1` (stereo partly drawn) [Example 28]: 4.87; `N#CCOC(=O)[C@H]1CC(c2c(F)cccc2F)=NC1c1ccc(-c2ccc(OC(F)(F)F)cc2)cc1` (stereo partly drawn) [Example 29]: 4.23.
The compound `N#CCCCOC(=O)[C@H]1CC(c2c(F)cccc2F)=NC1c1ccc(-c2ccc(OC(F)(F)F)cc2)cc1` (stereo partly drawn) [Example 30] came in with a chromatographic logP of 4.18.
On to `O=C(OC/C=C/c1ccccc1)[C@H]1CC(c2c(F)cccc2F)=NC1c1ccc(-c2ccc(OC(F)(F)F)cc2)cc1` (stereo partly drawn) [Example 31], for which the chromatographic logP came out at 5.55.
`CC(C)(COC(=O)[C@H]1CC(c2c(F)cccc2F)=NC1c1ccc(-c2ccc(OC(F)(F)F)cc2)cc1)[N+](=O)[O-]` (stereo partly drawn) [Example 32] showed a chromatographic logP of 4.77.
Compound `O=C(OCCCc1ccccc1)[C@H]1CC(c2c(F)cccc2F)=NC1c1ccc(-c2ccc(OC(F)(F)F)cc2)cc1` (stereo partly drawn) [Example 33] came in with a chromatographic logP of 5.78.
Consider `O=C(OCc1ccccc1)[C@H]1CC(c2c(F)cccc2F)=NC1c1ccc(-c2ccc(OC(F)(F)F)cc2)cc1` (stereo partly drawn) [Example 34], for which the chromatographic logP stood at 5.31.
The compound `O=C(OCc1ccccc1Cl)[C@H]1CC(c2c(F)cccc2F)=NC1c1ccc(-c2ccc(OC(F)(F)F)cc2)cc1` (stereo partly drawn) [Example 35] showed a chromatographic logP of 5.65.
For the compound `O=C(OCc1cccc(Cl)c1)[C@H]1CC(c2c(F)cccc2F)=NC1c1ccc(-c2ccc(OC(F)(F)F)cc2)cc1` (stereo partly drawn) [Example 36], the chromatographic logP turned out to be 5.58.
The compound `CC(OC(=O)[C@H]1CC(c2c(F)cccc2F)=NC1c1ccc(-c2ccc(OC(F)(F)F)cc2)cc1)c1ccccc1` (stereo partly drawn) [Example 38] came in with a chromatographic logP of 5.54.
For the compound `COC(=O)[C@@H](C)COC(=O)[C@H]1CC(c2c(F)cccc2F)=NC1c1ccc(-c2ccc(OC(F)(F)F)cc2)cc1` (stereo partly drawn) [Example 39], the chromatographic logP came out at 4.67.
`COC(=O)[C@H](C)COC(=O)[C@H]1CC(c2c(F)cccc2F)=NC1c1ccc(-c2ccc(OC(F)(F)F)cc2)cc1` (stereo partly drawn) [Example 40] returned a chromatographic logP of 4.67.
In turn, `O=C(OCC1CCCCC1)[C@H]1CC(c2c(F)cccc2F)=NC1c1ccc(-c2ccc(OC(F)(F)F)cc2)cc1` (stereo partly drawn) [Example 41] showed a chromatographic logP of 6.28.
As to `O=C(OCCOc1ccccc1)[C@H]1CC(c2c(F)cccc2F)=NC1c1ccc(-c2ccc(OC(F)(F)F)cc2)cc1` (stereo partly drawn) [Example 42], the chromatographic logP amounted to 5.21.
Turning to `O=C(OCc1cccs1)[C@H]1CC(c2c(F)cccc2F)=NC1c1ccc(-c2ccc(OC(F)(F)F)cc2)cc1` (stereo partly drawn) [Example 43], the chromatographic logP is 5.19.
On the same count and under the same terms, next, `O=C(OCc1ccsc1)[C@H]1CC(c2c(F)cccc2F)=NC1c1ccc(-c2ccc(OC(F)(F)F)cc2)cc1` (stereo partly drawn) [Example 44]: 5.14; `O=C(OCCCN1CCCC1=O)[C@H]1CC(c2c(F)cccc2F)=NC1c1ccc(-c2ccc(OC(F)(F)F)cc2)cc1` (stereo partly drawn) [Example 45]: 3.72.
In the case of `CC(C)N(C(=O)COC(=O)[C@H]1CC(c2c(F)cccc2F)=NC1c1ccc(-c2ccc(OC(F)(F)F)cc2)cc1)c1ccc(F)cc1` (stereo partly drawn) [Example 46], the chromatographic logP was 4.98.
The compound `O=C(OCc1ccc(Cl)nc1)[C@H]1CC(c2c(F)cccc2F)=NC1c1ccc(-c2ccc(OC(F)(F)F)cc2)cc1` (stereo partly drawn) [Example 47] gave a chromatographic logP of 4.82.
Regarding `CC1CCC(OC(=O)[C@H]2CC(c3c(F)cccc3F)=NC2c2ccc(-c3ccc(OC(F)(F)F)cc3)cc2)CC1` (stereo partly drawn) [Example 48], the chromatographic logP worked out at 6.22.
Compound `CC(OC(=O)[C@H]1CC(c2c(F)cccc2F)=NC1c1ccc(-c2ccc(OC(F)(F)F)cc2)cc1)C1CCCCC1` (stereo partly drawn) [Example 50] gave a chromatographic logP of 6.54.
For `O=C(OC1CCCc2ccccc21)[C@H]1CC(c2c(F)cccc2F)=NC1c1ccc(-c2ccc(OC(F)(F)F)cc2)cc1` (stereo partly drawn) [Example 51], the chromatographic logP worked out at 5.97.
Take `O=C(OC1CCc2ccccc21)[C@H]1CC(c2c(F)cccc2F)=NC1c1ccc(-c2ccc(OC(F)(F)F)cc2)cc1` (stereo partly drawn) [Example 52]: the chromatographic logP came to 5.71.
The same measure, in the same setting: next, `O=C(OCc1ccccn1)[C@H]1CC(c2c(F)cccc2F)=NC1c1ccc(-c2ccc(OC(F)(F)F)cc2)cc1` (stereo partly drawn) [Example 53]: 4.13.
For `O=C(OCc1cccnc1)[C@H]1CC(c2c(F)cccc2F)=NC1c1ccc(-c2ccc(OC(F)(F)F)cc2)cc1` (stereo partly drawn) [Example 54], the chromatographic logP came to 3.59.
Compound `CC(C)[C@H](C)OC(=O)[C@H]1CC(c2c(F)cccc2F)=NC1c1ccc(-c2ccc(OC(F)(F)F)cc2)cc1` (stereo partly drawn) [Example 55] displayed a chromatographic logP of 5.74.
On the same count and under the same terms, next, `CC(C)[C@@H](C)OC(=O)[C@H]1CC(c2c(F)cccc2F)=NC1c1ccc(-c2ccc(OC(F)(F)F)cc2)cc1` (stereo partly drawn) [Example 56]: 5.65; `CNC(=O)[C@H]1CC(c2c(F)cccc2F)=NC1c1ccc(-c2ccc(OC(F)(F)F)cc2)cc1` (stereo partly drawn) [Example 58]: 3.26; `CCNC(=O)[C@H]1CC(c2c(F)cccc2F)=NC1c1ccc(-c2ccc(OC(F)(F)F)cc2)cc1` (stereo partly drawn) [Example 59]: 3.49.
For the compound `CCCNC(=O)[C@H]1CC(c2c(F)cccc2F)=NC1c1ccc(-c2ccc(OC(F)(F)F)cc2)cc1` (stereo partly drawn) [Example 60], the chromatographic logP turned out to be 3.78.
Take `CCCCNC(=O)[C@H]1CC(c2c(F)cccc2F)=NC1c1ccc(-c2ccc(OC(F)(F)F)cc2)cc1` (stereo partly drawn) [Example 61]: the chromatographic logP was determined as 4.03.
Turning to `CCCCCNC(=O)[C@H]1CC(c2c(F)cccc2F)=NC1c1ccc(-c2ccc(OC(F)(F)F)cc2)cc1` (stereo partly drawn) [Example 62], the chromatographic logP came to 4.37.
On the same count and under the same terms, next, `CCCCCCNC(=O)[C@H]1CC(c2c(F)cccc2F)=NC1c1ccc(-c2ccc(OC(F)(F)F)cc2)cc1` (stereo partly drawn) [Example 63]: 4.67.

Staying with this series, now noted: reversed-phase HPLC column (C 18), pH 7.5, pH 7.5 (marked b), 0.01-molar aqueous phosphate buffer/acetonitrile, 43° C.
As to `CCCCOC(=O)[C@H]1CC(c2c(F)cccc2F)=NC1c1ccc(-c2ccc(OC(F)(F)F)cc2)cc1` (stereo partly drawn) [Example 14], the chromatographic logP was 5.49.
`CCCCCCOC(=O)[C@H]1CC(c2c(F)cccc2F)=NC1c1ccc(-c2ccc(OC(F)(F)F)cc2)cc1` (stereo partly drawn) [Example 15] had a chromatographic logP of 6.18.
Compound `CCC(C)OC(=O)[C@H]1CC(c2c(F)cccc2F)=NC1c1ccc(-c2ccc(OC(F)(F)F)cc2)cc1` (stereo partly drawn) [Example 16] had a chromatographic logP of 5.48.
In the case of `CC(C)COC(=O)[C@H]1CC(c2c(F)cccc2F)=NC1c1ccc(-c2ccc(OC(F)(F)F)cc2)cc1` (stereo partly drawn) [Example 17], the chromatographic logP is 5.47.
Compound `O=C(OC1CCCC1)[C@H]1CC(c2c(F)cccc2F)=NC1c1ccc(-c2ccc(OC(F)(F)F)cc2)cc1` (stereo partly drawn) [Example 18] yielded a chromatographic logP of 5.54.
In the case of `O=C(OC1CCCCC1)[C@H]1CC(c2c(F)cccc2F)=NC1c1ccc(-c2ccc(OC(F)(F)F)cc2)cc1` (stereo partly drawn) [Example 19], the chromatographic logP came out at 5.91.
As for `CC(C)[C@H](C)OC(=O)[C@H]1CC(c2c(F)cccc2F)=NC1c1ccc(-c2ccc(OC(F)(F)F)cc2)cc1` (stereo partly drawn) [Example 55], the chromatographic logP stood at 5.77.
On to `CC(C)[C@@H](C)OC(=O)[C@H]1CC(c2c(F)cccc2F)=NC1c1ccc(-c2ccc(OC(F)(F)F)cc2)cc1` (stereo partly drawn) [Example 56], for which the chromatographic logP is 5.86.
